Measured values as given in patent US10647700B2, “EZH2 inhibitor and use thereof” (TARAPEUTICS SCIENCE INC., priority 2017, dated 2020).

What was measured:
[1] = tested on: H3K27m3 methylation in Pfeiffer cells; test: Western Blot of H3K27m3 methylation in Pfeiffer cells; assay type: cell-based; settings: for IC50: 72 hours treatment, H3K27m3 methylation by Western Blot; for effect compared with control compounds in Western Blot verification on cells: versus EPZ6438 and GSK126
Protocol: Meanwhile, the inventors further conducted Western Blot with Pfeiffer cells (purchased from ATCC, USA) for verification. […] Effect of compounds on H3K27m3 methylation in cells was assessed.

[2] = molecular target: PRC2 protein complex comprising EZH2(Y641F) (Homo sapiens (Human), UniProt Q15910, Y641F); test: EZH2(Y641F) TR-FRET enzymatic activity assay; settings: for activity compared with control compounds in the assay using a TR-FRET kit: versus GSK126 and EPZ6438
PRC2 protein complex comprising EZH2(Y641F), sequence (Q15910 whole entry Y641F): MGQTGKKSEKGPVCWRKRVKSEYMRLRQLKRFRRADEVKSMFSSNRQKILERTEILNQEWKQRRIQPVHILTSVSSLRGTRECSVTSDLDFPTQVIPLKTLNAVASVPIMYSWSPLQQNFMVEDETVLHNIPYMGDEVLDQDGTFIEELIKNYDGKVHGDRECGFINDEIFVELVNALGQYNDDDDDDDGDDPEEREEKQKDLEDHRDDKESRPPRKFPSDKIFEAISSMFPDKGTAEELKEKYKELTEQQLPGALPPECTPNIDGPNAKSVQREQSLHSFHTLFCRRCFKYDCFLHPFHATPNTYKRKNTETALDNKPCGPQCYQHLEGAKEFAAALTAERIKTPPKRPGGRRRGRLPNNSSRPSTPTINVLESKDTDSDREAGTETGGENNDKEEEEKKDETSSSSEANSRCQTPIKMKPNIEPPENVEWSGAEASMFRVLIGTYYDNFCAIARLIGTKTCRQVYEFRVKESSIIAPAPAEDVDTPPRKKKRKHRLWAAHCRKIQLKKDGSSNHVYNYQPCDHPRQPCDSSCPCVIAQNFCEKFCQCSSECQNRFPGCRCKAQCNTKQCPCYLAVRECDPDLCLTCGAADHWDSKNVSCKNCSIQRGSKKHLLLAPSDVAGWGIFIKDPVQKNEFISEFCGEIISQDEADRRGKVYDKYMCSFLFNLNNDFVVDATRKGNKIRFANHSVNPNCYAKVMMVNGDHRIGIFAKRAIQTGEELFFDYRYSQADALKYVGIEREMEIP
PRC2 protein complex comprising EZH2(Y641F), sequence (O75530 whole entry partner): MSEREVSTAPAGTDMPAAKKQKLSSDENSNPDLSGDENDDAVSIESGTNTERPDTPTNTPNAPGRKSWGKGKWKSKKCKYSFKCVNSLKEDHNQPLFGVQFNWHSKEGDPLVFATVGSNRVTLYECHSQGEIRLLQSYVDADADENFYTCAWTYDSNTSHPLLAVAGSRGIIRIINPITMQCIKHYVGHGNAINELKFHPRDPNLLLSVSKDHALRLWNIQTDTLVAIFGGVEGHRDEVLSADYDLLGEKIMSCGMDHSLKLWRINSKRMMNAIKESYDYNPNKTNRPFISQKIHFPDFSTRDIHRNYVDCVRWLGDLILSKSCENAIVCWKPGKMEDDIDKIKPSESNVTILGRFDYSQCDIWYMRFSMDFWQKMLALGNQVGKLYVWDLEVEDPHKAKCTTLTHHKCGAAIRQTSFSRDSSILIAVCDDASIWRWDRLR
PRC2 protein complex comprising EZH2(Y641F), sequence (Q15022 whole entry partner): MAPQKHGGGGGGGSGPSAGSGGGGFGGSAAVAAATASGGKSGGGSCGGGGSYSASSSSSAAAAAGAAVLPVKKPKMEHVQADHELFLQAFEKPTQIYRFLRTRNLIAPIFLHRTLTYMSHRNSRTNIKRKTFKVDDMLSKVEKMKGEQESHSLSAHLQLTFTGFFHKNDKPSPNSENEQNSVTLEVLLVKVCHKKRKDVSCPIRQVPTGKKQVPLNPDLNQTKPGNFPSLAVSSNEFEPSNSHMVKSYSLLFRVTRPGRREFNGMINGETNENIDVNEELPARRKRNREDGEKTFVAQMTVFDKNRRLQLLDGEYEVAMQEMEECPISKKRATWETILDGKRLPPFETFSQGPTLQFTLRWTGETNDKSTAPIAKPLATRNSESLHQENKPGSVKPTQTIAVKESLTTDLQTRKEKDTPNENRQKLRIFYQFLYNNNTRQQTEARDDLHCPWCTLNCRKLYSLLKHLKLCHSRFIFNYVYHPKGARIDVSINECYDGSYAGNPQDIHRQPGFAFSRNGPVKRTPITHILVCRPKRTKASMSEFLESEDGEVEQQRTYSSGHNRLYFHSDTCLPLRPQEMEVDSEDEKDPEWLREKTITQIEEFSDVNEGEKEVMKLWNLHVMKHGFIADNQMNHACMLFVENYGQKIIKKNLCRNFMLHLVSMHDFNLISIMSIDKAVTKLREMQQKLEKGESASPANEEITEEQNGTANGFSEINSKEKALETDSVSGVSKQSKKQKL
PRC2 protein complex comprising EZH2(Y641F), sequence (Q09028 whole entry partner): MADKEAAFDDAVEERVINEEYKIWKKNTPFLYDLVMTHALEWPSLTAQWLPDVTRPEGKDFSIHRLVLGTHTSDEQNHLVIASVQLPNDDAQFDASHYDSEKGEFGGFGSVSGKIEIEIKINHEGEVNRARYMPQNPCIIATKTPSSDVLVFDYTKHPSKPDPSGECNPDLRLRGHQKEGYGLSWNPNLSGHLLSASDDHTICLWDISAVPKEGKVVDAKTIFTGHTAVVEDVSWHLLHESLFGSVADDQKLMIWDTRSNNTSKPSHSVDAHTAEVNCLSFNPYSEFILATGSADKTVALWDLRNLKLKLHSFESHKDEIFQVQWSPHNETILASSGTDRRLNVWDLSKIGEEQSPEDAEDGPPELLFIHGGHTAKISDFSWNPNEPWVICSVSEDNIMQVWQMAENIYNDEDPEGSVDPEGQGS
PRC2 protein complex comprising EZH2(Y641F), sequence (Q6ZN18 whole entry partner): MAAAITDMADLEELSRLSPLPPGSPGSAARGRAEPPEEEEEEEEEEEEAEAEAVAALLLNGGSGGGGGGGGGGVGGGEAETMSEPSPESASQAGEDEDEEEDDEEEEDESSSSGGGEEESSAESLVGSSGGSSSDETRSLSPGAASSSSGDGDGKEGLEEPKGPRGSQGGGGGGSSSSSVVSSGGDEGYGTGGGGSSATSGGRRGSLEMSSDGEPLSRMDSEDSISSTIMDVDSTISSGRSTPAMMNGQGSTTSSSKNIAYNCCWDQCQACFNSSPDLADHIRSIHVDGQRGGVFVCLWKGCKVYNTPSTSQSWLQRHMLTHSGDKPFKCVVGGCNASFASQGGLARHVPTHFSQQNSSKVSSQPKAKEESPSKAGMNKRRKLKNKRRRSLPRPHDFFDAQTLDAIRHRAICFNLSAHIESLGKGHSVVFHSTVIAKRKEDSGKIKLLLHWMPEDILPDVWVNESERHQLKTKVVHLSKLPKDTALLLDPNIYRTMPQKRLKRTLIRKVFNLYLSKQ
Protocol: Subsequently 5 μL of the assay antibody, H3K27me3-Eu(K)Ab (purchased from cisbio bioassays, USA, #61 KC3KAE) and 5 μL Streptavidin-XL665 (purchased from cisbio bioassays, USA, #610SAXLA), were added and incubated for 1 hour at room temperature.

[3] = molecular target: EZH2 (Homo sapiens (Human), UniProt Q15910); test: E-cadherin promoter luciferase reporter gene primary screening in 293T cells; assay type: cell-based; settings: 293T cells treated for 24 hours, Dual-Glo luciferase; for 1 μM relative fluorescence intensity: compound 1 μM; for 10 μM relative fluorescence intensity: compound 10 μM
EZH2, sequence (Q15910 whole entry): as the sequence (Q15910 whole entry Y641F) above, with F641Y counted along it
EZH2, sequence (O75530 whole entry partner): as the sequence (O75530 whole entry partner) above
EZH2, sequence (Q15022 whole entry partner): as the sequence (Q15022 whole entry partner) above
EZH2, sequence (Q09028 whole entry partner): as the sequence (Q09028 whole entry partner) above
Source text: EZH2 suppresses the expression of downstream E-cadherin, and upon EZH2 suppression, expression of E-cadherin will increase. Based on such principle, a reporter gene expression vector was constructed using luciferase.
The amplified fragments after PCR and the PGL4.1 vector (purchased from TAKARA, Japan) were respectively subjected to enzyme digestion with SacI and BglII (purchased from TAKARA, Japan), and then purified with PCR cleanup kit (Axygen PCR cleanup kit). Subsequently, the purified and enzyme-digested PCR products was ligated to the purified and enzyme-digested PGL4.1 vector using ligase solution I (DNA Ligation Kit Ver.2.1, purchased from TAKARA, Japan), and subjected to transformation. Single clones were then screened out and subjected to sequencing, and the obtained positive plasmid containing promoter fragments of Ecadherin was named E-cadherin RE-PGL4.1.
Meanwhile, a Renilla fluorescent vector was constructed using PCDNA4.1 (purchased from Thermofisher, USA) as the template to amplify the fragment of CMV promoter. After enzymatic digestion of the amplified CMV sequences and pGL4.70 vector (purchased from Promega, USA) with KpnI and XhoI (purchased from Promega, USA), purification was conducted with PCR cleanup kit (Axygen PCR cleanup kit). Then the enzyme-digested PCR product was ligated to the enzyme-digested PGL4.70 vector using ligase solution I (DNA Ligation Kit Ver.2.1, purchased from TAKARA, Japan) and the resultant was subjected to transformation. Subsequently single clones were screened and subjected to sequencing, and the obtained plasmid that contained CMV sequence was named as Plasmid Renilla luciferase-pGL4.70. Said plasmid utilized CMV promoter to achieve high expression of Renilla luciferase, which served as the control fluorescence for the primary screening system.
The cells were firstly added with 20 μL Dual-Glo® Luciferase Assay Reagent, then incubated under room temperature for 10 minutes, and read on microplate reader Spectramax i3 (Molecular Devices, USA) to obtain the data of primary screening, which is shown in Table 1.

CCN(C(=O)C1CC1)c1cc(-c2ccc(CN3CCOCC3)cc2)cc(C(=O)NCc2c(C)cc(C)[nH]c2=O)c1C [Compound 5, N-((4,6-dimethyl-2-oxo-1,2-dihydropyridin-3-yl)methyl)-5-(N-ethylcyclopropanecarboxamido)-4-methyl-4′-(morpholinomethyl)-[1,1′-diphenyl]-3-carboxamide]
IC50 ([1]; Homo sapiens): 0.086 µM

CCN(C(=O)C1CCCC1)c1cc(-c2ccc(CN3CCOCC3)cc2)cc(C(=O)NCc2c(C)cc(C)[nH]c2=O)c1C [Compound 16, N-((4,6-dimethyl-2-oxo-1,2-dihydropyridin-3-yl)methyl)-5-(N-ethylcyclopentanecarboxamido)-4-methyl-4′-(morpholinomethyl)-[1,1′-diphenyl]-3-carboxamide]
IC50 ([1]; Homo sapiens): 0.126 µM

CCN(C(=O)C1CCCC1)c1cc(-c2ccc(CN3CCN(C(=O)OC(C)(C)C)CC3)cc2)cc(C(=O)NCc2c(C)cc(C)[nH]c2=O)c1C [Compound 24, tert-butyl-4-((3′-(((4,6-dimethyl-2-oxo-1,2-dihydropyridin-3-yl)methyl)carbamoyl)-5′-(N-ethylcyclopentanecarboxamido)-4′-methyl-[1,1′-diphenyl]-4-yl)methyl)piperazin-1-carboxylate]
IC50 ([1]; Homo sapiens): 0.073 µM | IC50 [2]: 80.6 nM | activity compared with control compounds in the assay using a TR-FRET kit [2]: superior activity than control compounds GSK126 and EPZ6438

CCN(C(=O)C1CCCC1)c1cc(-c2ccc(N3CCN(C(=O)OC(C)(C)C)CC3)nc2)cc(C(=O)NCc2c(C)cc(C)[nH]c2=O)c1C [Compound 29, tertbutyl-4-(5-(3-(((4,6-dimethyl-2-oxo-1,2-dihydropyridin-3-yl)methyl)carbamoyl)-5-(N-ethylcyclopentanecarboxamido)-4-methylphenyl)pyridin-2-yl)piperazin-1-carboxylate]
1 μM relative fluorescence intensity [3]: 176.86 | 10 μM relative fluorescence intensity [3]: 364.77 | IC50 ([1]; Homo sapiens): 2.6 µM

CCN(C(=O)C1CCCC1)c1cc(-c2ccc(N3CCNCC3)cc2)cc(C(=O)NCc2c(C)cc(C)[nH]c2=O)c1C [Compound 31, N-((4,6-dimethyl-2-oxo-1,2-dihydropyridin-3-yl)methyl)-5-(N-ethylcyclopentanecarboxamido)-4-methyl-4′-(piperazin-1-yl)-[1,1′-diphenyl]-3-carboxamide]
IC50 ([1]; Homo sapiens): 0.087 µM | IC50 [2]: 444 nM

CCN(C(=O)C1CCCC1)c1cc(-c2ccc(N3CCNCC3)nc2)cc(C(=O)NCc2c(C)cc(C)[nH]c2=O)c1C [Compound 32, N-((4,6-dimethyl-2-oxo-1,2-dihydropyridin-3-yl)methyl)-3-(N-ethylcyclopentanecarboxamido)-2-methyl-5-(6-(piperazin-1-yl)pyridin-3-yl)-benzamide]
IC50 ([1]; Homo sapiens): 0.95 µM

CCN(C(=O)C1CCCC1)c1cc(C#N)cc(C(=O)NCc2c(C)cc(C)[nH]c2=O)c1C [Compound 33, 5-cyano-N-((4,6-dimethyl-2-oxo-1,2-dihydropyridin-3-yl)methyl)-3-(N-ethylcyclopentanecarboxamido)-2-methylbenzamide]
1 μM relative fluorescence intensity [3]: 123.27 | 10 μM relative fluorescence intensity [3]: 224.69 | IC50 ([1]; Homo sapiens): 0.67 µM

CCN(C(=O)C1CCCC1)c1cc(-c2ccnc(N3CCN(CC4CC4)CC3)c2)cc(C(=O)NCc2c(C)cc(C)[nH]c2=O)c1C [Compound 38, 5-(2-(4-(cyclopropylmethyl)piperazin-1-yl)pyridin-4-yl)-N-((4,6-dimethyl-2-oxo-1,2-dihydropyridin-3-yl)methyl)-3-(N-ethylcyclopentanecarboxamido)-2-methylbenzamide]
IC50 ([1]; Homo sapiens): 0.23 µM | IC50 [2]: 515 nM

CCCc1cc(C)[nH]c(=O)c1CNC(=O)c1cc(-c2ccnc(N3CCN(CC4CC4)CC3)c2)cc(N(CC)C(=O)C2CCCC2)c1C [Compound 39, 5-(2-(4-(cyclopropylmethyl)piperazin-1-yl)pyridin-4-yl)-3-(N-ethylcyclopentanecarboxamido)-2-methyl-N-((6-methyl-2-oxo-4-propyl-1,2-dihydropyridin-3-yl)methyl)benzamide]
IC50 ([1]; Homo sapiens): 0.83 µM

CCN(C(=O)C1CCCC1)c1cc(-c2ccc(OCCN3CCOCC3)cc2)cc(C(=O)NCc2c(C)cc(C)[nH]c2=O)c1C [Compound 40, N-((4,6-dimethyl-2-oxo-1,2-dihydropyridin-3-yl)methyl)-5-(N-ethylcyclopentanecarboxamido)-4-methyl-4′-(2-morpholinoethoxyl)-[1,1′-diphenyl]-3-carboxamide]
IC50 ([1]; Homo sapiens): 0.24 µM | IC50 [2]: 220 nM

CCN(C(=O)C1CCCC1)c1cc(-c2ccc(OCCCN3CCOCC3)cc2C)cc(C(=O)NCc2c(C)cc(C)[nH]c2=O)c1C [Compound 45, N-((4,6-dimethyl-2-oxo-1,2-dihydropyridin-3-yl)methyl)-5-(N-ethylcyclopentanecarboxamido)-2′,4-methyl-4′-(3-morpholinopropoxy)-[1,1′-diphenyl]-3-carboxamide]
1 μM relative fluorescence intensity [3]: 189.05 | 10 μM relative fluorescence intensity [3]: 218.76

CCN(C(=O)C1CC2C=CC1C2)c1cc(-c2ccc(CN3CCOCC3)cc2)cc(C(=O)NCc2c(C)cc(C)[nH]c2=O)c1C [Compound 60, (1R,4R)—N-(5-(((4,6-dimethyl-2-oxo-1,2-dihydropyridin-3-yl)methyl)carbamoyl-4-methyl-4′-(morpholinomethyl)-[1,1′-diphenyl]-3-yl)-N-ethylbicyclo[2.2.1]hept-5-en-2-carboxamide]
1 μM relative fluorescence intensity [3]: 143 | 3 μM relative fluorescence intensity ([3]; compound 3 μM): 140 | 10 μM relative fluorescence intensity [3]: 171

CCN(C(=O)C1CCCC1)c1cc(-c2ccc(OCCN3CCOCC3)cc2C)cc(C(=O)NCc2c(C)cc(C)[nH]c2=O)c1C [Compound 63, N-((4,6-dimethyl-2-oxo-1,2-dihydropyridin-3-yl)methyl)-5-(N-ethylcyclopentanecarboxamido)-2′,4-dimethyl-4′-(2-morpholinoethoxyl)-[1,1′-diphenyl]-3-carboxamide]
IC50 ([1]; Homo sapiens): 0.43 µM | IC50 [2]: 103 nM | activity compared with control compounds in the assay using a TR-FRET kit [2]: superior activity than control compounds GSK126 and EPZ6438

CCN(C(=O)C1CC1)c1cc(-c2ccc(OCCCN3CCOCC3)cc2C)cc(C(=O)NCc2c(C)cc(C)[nH]c2=O)c1C [Compound 64, N-((4,6-dimethyl-2-oxo-1,2-dihydropyridin-3-yl)methyl)-5-(N-ethylcyclopropanecarboxamido)-2′,4-dimethyl-4′-(3-morpholinopropoxy)-[1,1′-diphenyl]-3-carboxamide]
IC50 ([1]; Homo sapiens): 0.03 µM | effect compared with control compounds in Western Blot verification on cells [1]: superior effects than control compounds EPZ6438 and GSK126 | IC50 [2]: 103 nM | activity compared with control compounds in the assay using a TR-FRET kit [2]: superior activity than control compounds GSK126 and EPZ6438

CCN(C(=O)C1CC1)c1cc(-c2ccc(OCCCN3CCOCC3)c(F)c2)cc(C(=O)NCc2c(C)cc(C)[nH]c2=O)c1C [Compound 65, N-((4,6-dimethyl-2-oxo-1,2-dihydropyridin-3-yl)methyl)-5-(N-ethylcyclopropanecarboxamido)-3′-fluoro-4-methyl-4′-(3-morpholinopropoxy)-[1,1′-diphenyl]-3-carboxamide]
IC50 ([1]; Homo sapiens): 0.024 µM | effect compared with control compounds in Western Blot verification on cells [1]: superior effects than control compounds EPZ6438 and GSK126 | IC50 [2]: 29 nM | activity compared with control compounds in the assay using a TR-FRET kit [2]: superior activity than control compounds GSK126 and EPZ6438

CCN(C(=O)C1CC1)c1cc(-c2cnc(N3CCN(CC4CC4)CC3)cc2C)cc(C(=O)NCc2c(C)cc(C)[nH]c2=O)c1C [Compound 71, 5-(6-(4-(cyclopropylmethyl)piperazin-1-yl)-4-methylpyridin-3-yl)-N-((4,6-dimethyl-2-oxo-1,2-dihydropyridin-3-yl)methyl)-3-(N-ethylcyclopropanecarboxamido)-2-methylbenzamide]
IC50 ([1]; Homo sapiens): 0.041 µM | activity compared with control compounds in the assay using a TR-FRET kit [2]: superior activity than control compounds GSK126 and EPZ6438

CCN(C(=O)C1CC1)c1cc(-c2ccc(OCCN3CCOCC3)c(F)c2)cc(C(=O)NCc2c(C)cc(C)[nH]c2=O)c1C [Compound 74, N-((4,6-dimethyl-2-oxo-1,2-dihydropyridin-3-yl)methyl)-5-(N-ethylcyclopropanecarboxamido)-3′-fluoro-4-methyl-4′-(2-morpholinoethoxyl)-[1,1′-diphenyl]-3-carboxamide]
IC50 ([1]; Homo sapiens): 0.093 µM | IC50 [2]: 23 nM | activity compared with control compounds in the assay using a TR-FRET kit [2]: superior activity than control compounds GSK126 and EPZ6438

CC[C@H](C)n1cc(C)c2c(C(=O)NCc3c(C)cc(C)[nH]c3=O)cc(-c3ccc(N4CCNCC4)nc3)cc21 [GSK126, reference compound]
IC50 [1]: 1.4 µM
